Reference: ChEMBL document CHEMBL1154930, “N1-Heterocyclic pyrimidinediones as non-nucleoside inhibitors of HIV-1 reverse transcriptase” (Bioorg Med Chem Lett, 2010)

Key:
[1] = Half life in human microsomes; format: ADME, Microsome
[2] = Half life in Beagle dog at 0.5 mg/kg, iv or 0.5 mg/kg, po; format: ADME, organism-based, Canis lupus familiaris; conditions: in vivo
[3] = tested on: Human immunodeficiency virus 1; assay: Antiviral activity against HIV1 harboring reverse transcriptase Y181C mutant infected in human MT2 cells; format: functional, organism-based; conditions: Human immunodeficiency virus 1, MT2
[4] = tested on: Human immunodeficiency virus 1; assay: Antiviral activity against wild type HIV1 infected in human MT2 cells; format: functional, organism-based; conditions: Human immunodeficiency virus 1, MT2
[5] = tested on: Human immunodeficiency virus 1; assay: Antiviral activity against NNRTI-resistant HIV1 harboring reverse transcriptase K103N mutant infected in human MT2 cells; format: functional, organism-based; conditions: Human immunodeficiency virus 1, MT2
Albumin = Albumin (Homo sapiens, UniProt P02768); assay: Binding affinity to human serum albumin; format: ADME; conditions: read-out: PB (converted)
[6] = Half life in dog microsomes; format: ADME, Canis lupus familiaris, Microsome
[7] = Volume of distribution at steady state in Beagle dog at 0.5 mg/kg, iv or 0.5 mg/kg, po; format: ADME, organism-based, Canis lupus familiaris; conditions: in vivo, read-out: Vdss
[8] = Oral bioavailability in Beagle dog at 0.5 mg/kg, po; format: ADME, organism-based, Canis lupus familiaris; conditions: in vivo
[9] = Oral bioavailability in Beagle dog at 2 mg/kg, po; format: ADME, organism-based, Canis lupus familiaris; conditions: in vivo
[10] = Oral bioavailability in Beagle dog at 4 mg/kg, po; format: ADME, organism-based, Canis lupus familiaris; conditions: in vivo

Chain of Albumin (P02768 whole entry): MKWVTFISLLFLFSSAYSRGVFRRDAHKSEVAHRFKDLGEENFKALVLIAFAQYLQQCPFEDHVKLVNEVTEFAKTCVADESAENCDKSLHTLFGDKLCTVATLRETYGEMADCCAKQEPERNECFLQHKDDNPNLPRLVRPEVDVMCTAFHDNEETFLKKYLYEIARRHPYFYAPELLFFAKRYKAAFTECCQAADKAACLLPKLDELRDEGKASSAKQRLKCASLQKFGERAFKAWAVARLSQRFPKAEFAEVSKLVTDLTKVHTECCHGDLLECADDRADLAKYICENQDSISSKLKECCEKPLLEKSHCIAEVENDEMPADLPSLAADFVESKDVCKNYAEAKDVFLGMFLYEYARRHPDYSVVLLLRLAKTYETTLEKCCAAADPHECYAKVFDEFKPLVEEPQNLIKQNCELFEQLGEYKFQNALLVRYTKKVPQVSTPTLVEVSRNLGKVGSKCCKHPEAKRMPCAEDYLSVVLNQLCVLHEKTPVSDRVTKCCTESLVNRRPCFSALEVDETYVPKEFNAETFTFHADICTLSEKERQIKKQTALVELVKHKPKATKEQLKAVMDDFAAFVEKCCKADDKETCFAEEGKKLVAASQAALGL

Row | SMILES | t1/2 [1] | half-life [2] | EC50 [3] | EC50 [4] | EC50 [5] | fraction unbound (Albumin) | t1/2 [6] | Vd [7] | bioavailability [8] | half-life [1] | bioavailability [9] | bioavailability [10]
1 | Cc1cc(C#N)cc(C(=O)c2c(C(C)C)c(=O)[nH]c(=O)n2Cc2cc(F)nc(F)c2)c1 | Stable | 4.9 h | 12 nM | 12.4 nM | 1.9 nM | 0.058 | Stable | 1.94 L/kg | 41.5% | – | – | –
2 | Cc1cc(C#N)cc(C(=O)c2c(C(C)C)c(=O)[nH]c(=O)n2Cc2cc(N)nc(F)c2F)c1 | – | – | 8.2 nM | 4.5 nM | 7.3 nM | 0.067 | – | – | – | 0.85 h | – | –
3 | Cc1cc(C#N)cc(C(=O)c2c(C(C)C)c(=O)[nH]c(=O)n2Cc2ccnc(F)c2)c1 | – | 4.7 h | 16 nM | 6.2 nM | 2.4 nM | 0.123 | – | 1.61 L/kg | – | 4.68 h | 80% | –
4 | Cc1cc(C#N)cc(C)c1Oc1nc(Nc2ccc(C#N)cc2)nc(N)c1Br [ETRAVIRINE] | – | – | 2.6 nM | 1.6 nM | 0.9 nM | – | – | – | – | 2.33 h | – | –
5 | Cc1cc(C#N)cc(C(=O)c2c(C(C)C)c(=O)[nH]c(=O)n2Cc2cc(N)nc(F)c2)c1 | – | 3.3 h | 6.7 nM | 3.4 nM | 1.6 nM | 0.064 | – | 1.8 L/kg | – | 0.75 h | – | 96%
6 | O=C1Nc2ccc(Cl)cc2[C@@](C#CC2CC2)(C(F)(F)F)O1 [EFAVIRENZ] | – | – | 2.6 nM | – | 35 nM | – | – | – | – | 1.63 h | – | –
